In patent US5194383A, “Process for making L-aminoacylase” (priority 1991, dated 1993):
Where two headings read alike, the source gives them in different places.

Tests used:
[1] = tested on: L-amino acylase; type: biochemical, Alcaligenes denitrificans DA181; settings: for influence of the ion on the enzyme: in words, 30 minutes at 37° C., buffer A
Protocol: Various metal ions were incubated with an appropriate amount of enzyme for 30 min in 50 mM Tris-HCl pH 8.0. The remaining activity was determined by ninhydrin method.

[2] = tested on: L-amino acylase; assay: Substrate specificity of L-amino acylase (ninhydrin method); type: biochemical, Alcaligenes denitrificans DA181; settings: for Relative activity (%) L-amino acylase: 37° C., 50 mM Tris-HCl buffer pH 8.0
Protocol: This enzyme may hydrolyze N-acetyl-L-amino acids with a higher reactivity, but hydrolyze the N-acetyl-D-amino acids with a lower reactivity.
(§1) A comparison of the substrate specificity of L-amino acylase of this invention with D-amino acylase is summarized as shown in Table 3.
(§2) The enzyme activity was determined at 37° C. in 50 mM TrisCHl
(§3) buffer pH 8.0 by ninhydrin method.

[3] = tested on: D-amino acylase; assay: Substrate specificity of D-amino acylase (ninhydrin method); type: biochemical; settings: D-form of substrate; 37° C., 50 mM Tris-HCl buffer pH 8.0
Protocol: as §1, §2, §3

[4] = tested on: L-aminoacylase by Aspergillus; settings: conventional Aspergillus enzyme; cited from earlier work
[5] = metal ion 1 mM, 30 min, 50 mM Tris-HCl pH 8.0
[6] = metal ion 10^-1 mM, 30 min, 50 mM Tris-HCl pH 8.0, 100 µM
[7] = metal ion 10^-2 mM, 30 min, 50 mM Tris-HCl pH 8.0, 10 µM
[8] = metal ion 10^-3 mM, 30 min, 50 mM Tris-HCl pH 8.0, 1 µM

| SMILES | relative activity of L-amino acylase (%) [1, 5] | Relative activity (%) L-amino acylase ([2]; D-form of substrate) | Relative activity (%) L-amino acylase ([2]; L-form of substrate) | Relative activity (%) D-amino acylase [3] | further results |
| --- | --- | --- | --- | --- | --- |
| [Ba+2].[Cl-].[Cl-] [BaCl2] | 92% | – | – | – | – |
| [Ca+2].[Cl-].[Cl-] [CaCl2] | 94% | – | – | – | – |
| [Cl][Cd][Cl] [CdCl2] | 16% | – | – | – | influence of the ion on the enzyme [1]: inhibited |
| [Cl-].[Cl-].[Co+2] [CoCl2] | 120% | – | – | – | – |
| [Cl][Cu][Cl] [CuCl2] | 5% | – | – | – | influence of the ion on the enzyme [1]: inhibited; relative activity of L-amino acylase (%) [1, 6]: 77%; relative activity of L-amino acylase (%) [1, 7]: 90%; relative activity of L-amino acylase (%) [1, 8]: 94% |
| O=C(O)CN(CCN(CC(=O)O)CC(=O)O)CC(=O)O [EDTA.2Na] | – | – | – | – | relative activity of L-amino acylase (%) ([1]; 50 mm tris-hcl, pH 8, 30 min, 1000 µM): 55% |
| [Cl][Fe][Cl] [FeCl2] | 15% | – | – | – | influence of the ion on the enzyme [1]: inhibited |
| [Cl][Hg][Cl] [HgCl2] | – | – | – | – | influence of the ion on the enzyme [1]: inhibited; relative activity of L-amino acylase (%) [1, 8]: 0%; relative activity of L-amino acylase (%) ([1]; metal ion 10^-4 mM, 30 min, 50 mM Tris-HCl pH 8.0, 0.1 µM): 0% |
| [Cl-].[Cl-].[Mg+2] [MgCl2] | 98% | – | – | – | – |
| [Cl][Mn][Cl] [MnCl2] | 86% | – | – | – | – |
| CC(=O)N[C@@H](C)C(=O)O [N-acetyl-alanine] | – | 0% | 78% | 25% | – |
| CC[C@@H](C)[C@H](NC(C)=O)C(=O)O [N-acetyl-alloisoleucine] | – | 0% | – | 12% | – |
| CC(=O)N[C@@H](CCCNC(=N)N)C(=O)O [N-acetyl-arginine] | – | – | 0.04% | – | – |
| CC(=O)N[C@@H](CC(N)=O)C(=O)O [N-acetyl-asparagine] | – | 0% | 3% | 17% | – |
| CC(=O)N[C@@H](CC(=O)O)C(=O)O [N-acetyl-aspartic acid] | – | – | 1% | – | – |
| CC(=O)N[C@@H](CCC(=O)O)C(=O)O [N-acetyl-glutamic acid] | – | – | 0.12% | – | – |

| SMILES | relative activity of L-amino acylase (%) [1, 5] | Relative activity (%) L-amino acylase ([2]; D-form of substrate) | Relative activity (%) L-amino acylase ([2]; L-form of substrate) | Relative activity (%) D-amino acylase [3] | further results |
| --- | --- | --- | --- | --- | --- |
| CC(=O)N[C@@H](Cc1c[nH]cn1)C(=O)O [N-acetyl-histidine] | – | – | 0.08% | – | – |
| CC(=O)N[C@@H](CC(C)C)C(=O)O [N-acetyl-leucine] | – | 2% | 10% | 60% | – |
| CSCC[C@H](NC(C)=O)C(=O)O [N-acetyl-methionine] | – | 0.12% | 30% | 100% | – |
| CC(=O)N[C@@H](Cc1ccccc1)C(=O)O [N-acetyl-phenylalanine] | – | 0.9% | 34% | 81% | – |
| CC(=O)N[C@@H](C(=O)O)c1ccccc1 [N-acetyl-phenylglycine] | – | 0% | – | 5% | – |
| CC(=O)N[C@@H](Cc1c[nH]c2ccccc12)C(=O)O [N-acetyl-tryptophan] | – | 0.9% | 11% | 33% | – |
| CC(=O)N[C@@H](Cc1ccc(O)cc1)C(=O)O [N-acetyl-tyrosine] | – | – | 36% | – | – |
| CC(=O)N[C@H](C(=O)O)C(C)C [N-acetyl-valine] | – | 7% | 95% | 6% | – |
| CC(C)[C@H](NC(=O)CCl)C(=O)O [N-chloroacetyl-L-valine] | – | – | – | – | reactivity of hydrolysis by the enzyme ([2]; in words): especially high |
| CC(C)[C@H](NC(=O)CCl)C(=O)O [N-chloroacetyl-valine] | – | 0.8% | 100% | 66% | – |
| [Cl][Ni][Cl] [NiCl2] | 95% | – | – | – | – |
| [Cl][Pb][Cl] [PbCl2] | 50% | – | – | – | influence of the ion on the enzyme [1]: inhibited; relative activity of L-amino acylase (%) [1, 6]: 71%; relative activity of L-amino acylase (%) [1, 7]: 71%; relative activity of L-amino acylase (%) [1, 8]: 97% |
| [Cl-].[Cl-].[Sr+2] [SrCl2] | 80% | – | – | – | – |
| [Cl-].[Cl-].[Zn+2] [ZnCl2] | 61% | – | – | – | influence of the ion on the enzyme [1]: inhibited |
| [Co+2] [cobalt ions] | – | – | – | – | enzyme activation [4]: 2.5 fold |
